Converted amounts (≈) assume the structure as drawn. Structures can show the parent of a compound that is named as a salt.
How the values were obtained:
[1] = target: T1, MAO-A (Homo sapiens, UniProt P21397); assay: MAO-A inhibition, standard in-vitro assay, human liver enzyme expressed in yeast; type: biochemical; settings: read-out: Ki value against MAO-A
T1 construct: made in house; host or cells: yeast
T1 sequence (P21397 1-527): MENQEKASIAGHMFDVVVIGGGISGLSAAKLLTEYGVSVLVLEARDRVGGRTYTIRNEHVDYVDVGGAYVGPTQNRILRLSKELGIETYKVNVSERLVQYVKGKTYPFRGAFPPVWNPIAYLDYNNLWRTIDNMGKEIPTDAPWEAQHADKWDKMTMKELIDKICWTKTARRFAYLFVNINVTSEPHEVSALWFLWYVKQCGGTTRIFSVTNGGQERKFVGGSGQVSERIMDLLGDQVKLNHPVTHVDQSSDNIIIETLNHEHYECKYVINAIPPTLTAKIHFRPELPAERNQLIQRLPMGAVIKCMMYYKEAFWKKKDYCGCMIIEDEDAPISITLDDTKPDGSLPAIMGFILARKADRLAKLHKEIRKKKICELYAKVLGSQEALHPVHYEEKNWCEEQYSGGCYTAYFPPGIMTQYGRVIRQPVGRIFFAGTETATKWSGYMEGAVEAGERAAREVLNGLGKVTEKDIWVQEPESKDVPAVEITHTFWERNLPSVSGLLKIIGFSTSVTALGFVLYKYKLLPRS
Method: The activity of the compounds of the invention against MAO-A was tested using a standard in-vitro assay based on human liver enzyme expressed in yeast as described in Biochem. Biophys. Res. Commun. 1991, 181, 1084-1088.

[2] = tested on: Staphylococcus aureus MSQS (methicillin sensitive and quinolone sensitive); assay: MIC, agar dilution, Staphylococcus aureus MSQS; type: cell-based; settings: inoculum 10^4 CFU/spot, 37° C., 24 hours
Method: (§1) The following results were obtained on a standard in-vitro test system. The activity is described in terms of the minimum inhibitory concentration (MIC) determined by the agar-dilution technique with an inoculum size of 10^4 CFU/spot. Typically, compounds are active in the range 0.01 to 256 μg/ml.
(§2) Staphylococci were tested on agar, using an inoculum of 10^4 CFU/spot and an incubation temperature of 37° C. for 24 hours—standard test conditions for the expression of methicillin resistance.

[3] = tested on: Staphylococcus aureus MRQR (methicillin resistant and quinolone resistant); assay: MIC, agar dilution, Staphylococcus aureus MRQR; type: cell-based; settings: inoculum 10^4 CFU/spot, 37° C., 24 hours
Method: as §1, §2

[4] = tested on: Streptococcus pneumoniae; assay: MIC, agar dilution, Streptococcus pneumoniae; type: cell-based; settings: agar with 5% defibrinated horse blood, 10^4 CFU/spot, 37° C., 5% carbon dioxide, 48 hours
Method: as §1
(§3) Streptococci and enterococci were tested on agar supplemented with 5% defibrinated horse blood, an inoculum of 10^4 CFU/spot and an incubation temperature of 37° C. in an atmosphere of 5% carbon dioxide for 48 hours—blood is required for the growth of some of the test organisms. Fastidious Gram negative organisms were tested in Mueller-Hinton broth, supplemented with hemin and NAD, grown aerobically for 24 hours at 37° C., and with an innoculum of 5×10^4 CFU/well.

[5] = tested on: Haemophilus influenzae; assay: MIC, Haemophilus influenzae (fastidious Gram negative, broth); type: cell-based; settings: Mueller-Hinton broth with hemin and NAD, 24 hours at 37° C., 5×10^4 CFU/well
Method: as §1, §3

[6] = tested on: Moraxella catarrhalis; assay: MIC, Moraxella catarrhalis (fastidious Gram negative, broth); type: cell-based; settings: Mueller-Hinton broth with hemin and NAD, 24 hours at 37° C., 5×10^4 CFU/well
Method: as §1, §3

[7] = tested on: Linezolid Resistant Streptococcus pneumoniae; assay: MIC, agar dilution, Linezolid Resistant Streptococcus pneumoniae; type: cell-based; settings: agar with 5% defibrinated horse blood, 10^4 CFU/spot, 37° C., 5% carbon dioxide, 48 hours
Method: as §1, §3

## O=C(O)CNCC(=O)NC[C@@H]1CC(c2ccc(-c3ccc(N4C[C@H](Cn5ccnn5)OC4=O)cc3F)cn2)=NO1 [Example 25, N-[2-({[(5S)-3-(5-{2-Fluoro-4-[(5R)-2-oxo-5-(1H-1,2,3-triazol-1-ylmethyl)-1,3-oxazolidin-3-yl]phenyl}pyridin-2-yl)-4,5-dihydroisoxazol-5-yl]methyl}amino)-2-oxoethyl]glycine]
other
  melting point: 200 to 210 °C

## NC[C@@H]1CC(c2ccc(-c3ccc(N4C[C@H](Cn5ccnn5)OC4=O)cc3F)cn2)=NO1 [Reference Example 16, (5R)-3-(4-{6-[(5S)-5-(Aminomethyl)-4,5-dihydroisoxazol-3-yl]pyridin-3-yl}-3-fluorophenyl)-5-(1H-1,2,3-triazol-1-ylmethyl)-1,3-oxazolidin-2-one]
[1]
  Ki: 350 nM
other
  melting point: 119 to 122 °C

## CN(C)C[C@@H]1CC(c2ccc(-c3ccc(N4C[C@H](Cn5ccnn5)OC4=O)cc3F)cn2)=NO1 [Example 1, (5R)-3-[4-(6-{(5S)-5-[(Dimethylamino)methyl]-4,5-dihydroisoxazol-3-yl}pyridin-3-yl)-3-fluorophenyl]-5-(1H-1,2,3-triazol-1-ylmethyl)-1,3-oxazolidin-2-one]
other
  melting point: 212 °C

## CN(CCO)C[C@@H]1CC(c2ccc(-c3ccc(N4C[C@H](Cn5ccnn5)OC4=O)cc3F)cn2)=NO1 [Example 10, (5R)-3-[3-Fluoro-4-[6-((5S)-5-{[(2-hydroxyethyl)(methyl)amino]methyl]-4,5-dihydroisoxazol-3-yl)pyridin-3-yl]phenyl}-5-(1H-1,2,3-triazol-1-ylmethyl)-1,3-oxazolidin-2-one]
other
  melting point: 153 to 156 °C

## O=C(NC[C@@H]1CC(c2ccc(-c3ccc(N4C[C@H](Cn5ccnn5)OC4=O)cc3F)cn2)=NO1)[C@@H]1CCCN1 (as salt: hydrochloride) [Example 20, N-{[(5S)-3-(5-{2-Fluoro-4-[(5R)-2-oxo-5-(1H-1,2,3-triazol-1-ylmethyl)-1,3-oxazolidin-3-yl]phenyl}pyridin-2-yl)-4,5-dihydroisoxazol-5-yl]methyl}-L-prolinamide hydrochloride]
other
  melting point: 246 to 249 °C

## O=C1O[C@@H](Cn2ccnn2)CN1c1ccc(-c2ccc(C3=NO[C@H](CN4CCCC4)C3)nc2)c(F)c1 (as salt: hydrochloride) [Example 12]
other
  melting point: 260 to 263 °C

## O=C1O[C@@H](Cn2ccnn2)CN1c1ccc(-c2ccc(C3=NO[C@H](CN4CCOCC4)C3)nc2)c(F)c1 [Example 3, (5R)-3-(3-Fluoro-4-{6-[(5S)-5-(morpholin-4-ylmethyl)-4,5-dihydroisoxazol-3-yl]pyridin-3-yl}phenyl)-5-(1H-1,2,3-triazol-1-ylmethyl)-1,3-oxazolidin-2-one]
[2]
  MIC: 0.5 µg/mL (≈ 0.985 µM)
[3]
  MIC: 0.5 µg/mL (≈ 0.985 µM)
[4]
  MIC: 0.13 µg/mL (≈ 0.256 µM)
[5]
  MIC: 8 µg/mL (≈ 15.8 µM)
[6]
  MIC: 1 µg/mL (≈ 1.97 µM)
[7]
  MIC: 1 µg/mL (≈ 1.97 µM)
[1]
  Ki: > 22000 nM
other
  melting point: 230 °C

Reference: US20080064689A1, “3-[4-(6-Pyridin-3-Yl)-3-Phenyl] -5-(1H-1,2,3-Triazol-1-Ylmethyl)-1,3-Oxazolidin-2-Ones as Antibacterial Agents” (AstraZeneca AB, priority 2004, published 2008)
